20 compounds from patent publication US9290515B2, “Cephem derivative having catechol group” (SHIONOGI & CO., LTD., priority 2011, dated 2016) can be followed below.

Values after ≈ are worked out from the molar mass of the structure shown. Where two headings read alike, the source gives them in different places.

Holding throughout (type): cell-based
Experiment [1] concerns E. coli ATCC BAA-196_TEM-10. As to the kind of experiment: MIC by broth microdilution (CLSI), E. coli ATCC BAA-196. To be noted: Escherichia coli. On the procedure: (§1) Measurement of a minimum growth inhibition concentration (MIC: μg/mL) was performed according to CLSI (Clinical and Laboratory Standards Institute) method, by broth microdilution method, using an inoculation microbe amount of 10000 cfu/well and cation-adjusted Mueller Hinton broth containing human-derived 20 μM apo-transferrin as a test medium.
On the technique in general: In broth dilution the organism is exposed to a series of concentrations in liquid medium.

In experiment [2] the test system is K. pneumoniae ATCC 700603_SHV18. In words: MIC by broth microdilution (CLSI), K. pneumoniae ATCC 700603. The following applies: Klebsiella pneumoniae. As to the method: as §1
Experiment [3] deals with P. aeruginosa SR24. As to the kind of experiment: MIC by broth microdilution (CLSI), P. aeruginosa SR24. The following applies: Pseudomonas aeruginosa. On the procedure:
as §1

In experiment [4] the test system is P. aeruginosa SR27001(MDRP, IMP-1+). In words: MIC by broth microdilution (CLSI), P. aeruginosa SR27001. To be noted: Pseudomonas aeruginosa, read-out: minimum growth inhibition concentration (MIC). On the procedure: as §1
Experiment [5] concerns A. baumannii SR24396. As to the kind of experiment: MIC by broth microdilution (CLSI), A. baumannii SR24396. The following applies: Acinetobacter baumannii, 10000 cfu/well, cation-adjusted Mueller Hinton broth with 20 μM human apo-transferrin, read-out: minimum growth inhibition concentration (MIC). As to the method: as §1
In experiment [6] the test system is P. aeruginosa SR27060(metallo). As to the kind of experiment: MIC by broth microdilution (CLSI), P. aeruginosa SR27060. To be noted: Pseudomonas aeruginosa; P. aeruginosa SR27060, IMP-1, MBL producing carbapenem-resistant strain; 10000 cfu/well; cation-adjusted Mueller Hinton broth with 20 μM human apo-transferrin; read-out: minimum growth inhibition concentration (MIC). As to the method: as §1

The mark [7] stands for this setting: ATCCBAA196, E. coli ATCC BAA-196, TEM-10, ESBL producing strain, 10000 cfu/well, cation-adjusted Mueller Hinton broth with 20 μM human apo-transferrin, read-out: minimum growth inhibition concentration (MIC).
The mark [8] stands for this setting: ATCC700603, K. pneumoniae ATCC 700603, SHV-18, ESBL producing strain, 10000 cfu/well, cation-adjusted Mueller Hinton broth with 20 μM human apo-transferrin, read-out: minimum growth inhibition concentration (MIC).
[9] abbreviates: P. aeruginosa SR24, Ceftazidime-sensitive strain, 10000 cfu/well, cation-adjusted Mueller Hinton broth with 20 μM human apo-transferrin, read-out: minimum growth inhibition concentration (MIC).
The mark [10] stands for this setting: P. aeruginosa SR27001, MDRP, IMP-1, MBL producing carbapenem-resistant strain, 10000 cfu/well, cation-adjusted Mueller Hinton broth with 20 μM human apo-transferrin.
[11] abbreviates: ATCCBAA196, read-out: minimum growth inhibition concentration (MIC).
Setting [12] is: ATCC700603, read-out: minimum growth inhibition concentration (MIC).
[13] abbreviates: SR24, read-out: minimum growth inhibition concentration (MIC).

For the compound `Nc1nc(/C(=N/OC(CNC(=O)c2ccc(O)c(O)c2Cl)C(=O)[O-])C(=O)N[C@@H]2C(=O)N3C(C(=O)[O-])=C(C[N+]4(CCNC(=O)C[C@@H](N)CC(=O)O)CCCC4)CS[C@H]23)cs1.[Na+]` (stereo partly shown) [Compound I-27], the MIC in experiment [1] (setting [7]) came to 2 µg/mL; in experiment [2] (setting [8]) it was 0.5 µg/mL; in experiment [3] (setting [9]), 0.25 µg/mL; in experiment [4] (setting [10]), 4 µg/mL.
Taken in the same sequence, the figures for `Nc1nc(/C(=N/OC(CNC(=O)c2ccc(O)c(O)c2Cl)C(=O)[O-])C(=O)N[C@@H]2C(=O)N3C(C(=O)[O-])=C(C[N+]45CCCC4CCC5)CS[C@H]23)cs1.[Na+]` (stereo partly shown) [Compound I-24] were 1 µg/mL, 0.5 µg/mL, 0.5 µg/mL and 16 µg/mL.
For `Nc1nc(/C(=N/OC(CNC(=O)c2ccc(O)c(O)c2Cl)C(=O)[O-])C(=O)N[C@@H]2C(=O)N3C(C(=O)[O-])=C(C[N+]4(CCNC(=O)C[C@@H](N)CC(=O)O)CCCC4)CS[C@H]23)c(Cl)s1.[Na+]` (stereo partly shown) [Compound I-30] the same measures were 0.5 µg/mL, 2 µg/mL, 0.25 µg/mL and 8 µg/mL.
Regarding `C[N+]1(CC2=C(C(=O)[O-])N3C(=O)[C@@H](NC(=O)/C(=N\OC(CNC(=O)c4ccc(O)c(O)c4Cl)C(=O)[O-])c4csc(N)n4)[C@H]3SC2)[C@@H]2CCC[C@H]1CC2.[Na+]` (stereo partly shown) [Compound I-10], the MIC stood at 1 µg/mL in experiment [1] (setting [11]), 0.5 µg/mL in experiment [2] (setting [12]), 0.25 µg/mL in experiment [3] (setting [13]) and 2 µg/mL in experiment [4].
Regarding `Nc1nc(/C(=N/OC[C@H](NC(=O)c2ccc(O)c(O)c2Cl)C(=O)[O-])C(=O)N[C@@H]2C(=O)N3C(C(=O)[O-])=C(Cn4ccc(=O)c(O)c4)CS[C@H]23)cs1.[Na+].[Na+]` [Compound I-5], the MIC in experiment [1] (setting [7]) is 8 µg/mL; in experiment [5], at most 0.031 µg/mL.
On to `Nc1nc(/C(=N/OC(CNC(=O)c2ccc(O)c(O)c2Cl)C(=O)[O-])C(=O)N[C@@H]2C(=O)N3C(C(=O)[O-])=C(C[N+]45CCCC4CCC5)CS[C@H]23)c(Cl)s1.[Na+]` (stereo partly shown) [Compound I-28], for which the MIC came out at 0.5 µg/mL in experiment [1] (setting [7]), 1 µg/mL in experiment [2] (setting [8]), 0.25 µg/mL in experiment [3] (setting [9]) and 8 µg/mL in experiment [4] (setting [10]).
Regarding `Nc1nc(/C(=N/OC(CNC(=O)c2ccc(O)c(O)c2Cl)C(=O)[O-])C(=O)N[C@@H]2C(=O)N3C(C(=O)[O-])=C(C[N+]45CCC(CC4)CC5)CS[C@H]23)ns1.[Na+]` (stereo partly shown) [Compound I-17], the MIC in experiment [1] (setting [7]) turned out to be 4 µg/mL; in experiment [2] (setting [8]), 8 µg/mL; in experiment [3] (setting [9]) it was 0.25 µg/mL.
As for `Nc1nc(/C(=N/OC(CNC(=O)c2ccc(O)c(O)c2Cl)C(=O)[O-])C(=O)N[C@@H]2C(=O)N3C(C(=O)[O-])=C(C[N+]4(CCNC(=O)CC[C@H](N)C(=O)O)CCCC4)CS[C@H]23)c(Cl)s1.[Na+]` (stereo partly shown) [Compound I-29], the MIC amounted to 0.5 µg/mL in experiment [1] (setting [7]), 1 µg/mL in experiment [2] (setting [8]), 0.5 µg/mL in experiment [3] (setting [9]) and 2 µg/mL in experiment [4] (setting [10]).
As to `NCC[N+]1(CC2=C(C(=O)[O-])N3C(=O)[C@@H](NC(=O)/C(=N\OC(CNC(=O)c4ccc(O)c(O)c4Cl)C(=O)O)c4nc(N)sc4Cl)[C@H]3SC2)CCCC1` (stereo partly shown) [Compound I-16], the MIC in experiment [1] (setting [7]) amounted to 0.125 µg/mL (≈ 0.159 µM); in experiment [2] (setting [8]), 1 µg/mL (≈ 1.27 µM); in experiment [3] (setting [9]), 0.25 µg/mL (≈ 0.317 µM); in experiment [4] (setting [10]), 2 µg/mL (≈ 2.54 µM).
With `CC1(C)CCc2ccc[n+](CC3=C(C(=O)[O-])N4C(=O)[C@@H](NC(=O)/C(=N\OC[C@H](NC(=O)c5ccc(O)c(O)c5Cl)C(=O)[O-])c5csc(N)n5)[C@H]4SC3)c21.[Na+]` [Compound I-4], the MIC was found to be 0.5 µg/mL in experiment [1] (setting [7]) and 0.125 µg/mL in experiment [3] (setting [9]).
As to `CC1(C)CCc2ccc[n+](CC3=C(C(=O)[O-])N4C(=O)[C@@H](NC(=O)/C(=N\O[C@@H](CNC(=O)c5ccc(O)c(O)c5Cl)C(=O)[O-])c5csc(N)n5)[C@H]4SC3)c21.[Na+]` [Compound I-14], the MIC amounted to 0.5 µg/mL in experiment [1] (setting [7]), 1 µg/mL in experiment [2] (setting [8]) and 0.5 µg/mL in experiment [3] (setting [9]).
In the case of `NCC[N+]1(CC2=C(C(=O)[O-])N3C(=O)[C@@H](NC(=O)/C(=N\OCc4ccc(O)c(O)c4C(=O)O)c4csc(N)n4)[C@H]3SC2)CCCC1` [Compound I-19], the MIC came out at 8 µg/mL (≈ 12.1 µM) in experiment [1] (setting [7]) and 0.5 µg/mL (≈ 0.756 µM) in experiment [3] (setting [9]).
`CC(C)(O/N=C(\C(=O)N[C@@H]1C(=O)N2C(C(=O)[O-])=C(C[N@+]3(C)[C@@H]4CC[C@H]3C[C@@H](N)C4)CS[C@H]12)c1ccc(O)c(O)c1Cl)C(=O)O` [Compound I-20]: the MIC amounted to 4 µg/mL (≈ 6.13 µM) in experiment [6] and 2 µg/mL (≈ 3.07 µM) in experiment [1] (setting [7]).
Turning to `NCC[N+]1(CC2=C(C(=O)[O-])N3C(=O)[C@@H](NC(=O)/C(=N\OC(C[C@H](NC(=O)c4ccc(O)c(O)c4Cl)C(=O)[O-])C(=O)O)c4csc(N)n4)[C@H]3SC2)CCCC1.[Na+]` (stereo partly shown) [Compound I-31], the MIC worked out at 0.25 µg/mL in experiment [1] (setting [7]), 0.25 µg/mL in experiment [2] (setting [8]), 0.5 µg/mL in experiment [3] (setting [9]) and 1 µg/mL in experiment [4] (setting [10]).
On to `C[N+]1(CC2=C(C(=O)[O-])N3C(=O)[C@@H](NC(=O)/C(=N\O[C@@H](CNC(=O)c4ccc(O)c(O)c4Cl)C(=O)[O-])c4csc(N)n4)[C@H]3SC2)CC2CCCC2C1.[Na+]` (stereo partly shown) [Compound I-11], for which the MIC was found to be 1 µg/mL in experiment [1] (setting [7]), 4 µg/mL in experiment [2] (setting [8]), 0.25 µg/mL in experiment [3] (setting [9]) and 4 µg/mL in experiment [4] (setting [10]).
For `Nc1nc(/C(=N/OC(CNC(=O)c2ccc(O)c(O)c2Cl)C(=O)[O-])C(=O)N[C@@H]2C(=O)N3C(C(=O)[O-])=C(C[N+]45CCC(CC4)CC5)CS[C@H]23)c(Cl)s1.[Na+]` (stereo partly shown) [Compound I-15], the MIC in experiment [1] (setting [7]) turned out to be 1 µg/mL; in experiment [2] (setting [8]), 1 µg/mL; in experiment [3] (setting [9]), 0.25 µg/mL; in experiment [4] (setting [10]), 4 µg/mL.
Regarding `C[N+]1(CC2=C(C(=O)[O-])N3C(=O)[C@@H](NC(=O)/C(=N\OC(CNC(=O)c4ccc(O)c(O)c4Cl)C(=O)[O-])c4csc(N)n4)[C@H]3SC2)[C@@H]2CC[C@H]1C[C@@H](NC(=O)CC[C@H](N)C(=O)O)C2.[Na+]` (stereo partly shown) [Compound I-26], the MIC in experiment [1] (setting [11]) is 1 µg/mL; in experiment [2] (setting [12]), 1 µg/mL; in experiment [3] (setting [13]), 1 µg/mL; in experiment [4], 4 µg/mL.
On to `Nc1nc(/C(=N/O[C@@H](CNC(=O)c2ccc(O)c(O)c2Cl)C(=O)[O-])C(=O)N[C@@H]2C(=O)N3C(C(=O)[O-])=C(C[N+]45CCC(CNC(=O)CC[C@H](N)C(=O)O)(CC4)CC5)CS[C@H]23)cs1.[Na+]` [Compound I-12], for which the MIC turned out to be 2 µg/mL in experiment [1] (setting [7]), 1 µg/mL in experiment [2] (setting [8]), 0.25 µg/mL in experiment [3] (setting [9]) and 4 µg/mL in experiment [4] (setting [10]).
Taken in the same sequence, the figures for `Nc1nc(/C(=N/OC(CNC(=O)c2ccc(O)c(O)c2Cl)C(=O)[O-])C(=O)N[C@@H]2C(=O)N3C(C(=O)[O-])=C(C[N+]4(CCNC(=O)CC[C@H](N)C(=O)O)CCCC4)CS[C@H]23)cs1.[Na+]` (stereo partly shown) [Compound I-25] were 2 µg/mL, 1 µg/mL, 0.5 µg/mL and 4 µg/mL.
For `Nc1nc(/C(=N/OC(C[C@H](NC(=O)c2ccc(O)c(O)c2Cl)C(=O)[O-])C(=O)[O-])C(=O)N[C@@H]2C(=O)N3C(C(=O)[O-])=C(C[N+]4(CCNC(=O)CC[C@H](N)C(=O)O)CCCC4)CS[C@H]23)cs1.[Na+].[Na+]` (stereo partly shown) [Compound I-32] the same measures were 0.5 µg/mL, 1 µg/mL, 0.25 µg/mL and 2 µg/mL.
